Measured values published in patent US20060264367A1, “Prevention of fibrosis following cardiac injury” (Howard Florey Institute, priority 2005, published 2006).

What was measured:
Format in all cases: cell-based, rat
[1] = system: atrial and ventricular fibroblasts; assay: Cardiac fibroblast proliferation (cell counts and [3H]-thymidine incorporation); details: for increase in fibroblast proliferation: 3 days; for increase in atrial and ventricular fibroblast proliferation: 72 h
Procedure: The ability of rhRLX to modulate cardiac fibroblast proliferation was investigated in the absence or presence of Ang II and IGF-I, which both potently stimulate fibroblast proliferation. Cardiac fibroblasts were plated at an equal density of 10^4 cells/96-well plate in DMEM-FBS. Twenty-four hours later, media were changed to DMEM supplemented with lactalbumin hydrolysate, and cells were labelled with [^3H]-thymidine (3 μCi/ml) in the presence of rhRLX (100 ng/ml) alone or in combination with IGF-I (0.1 μg/ml, 0.5 μg/ml, and 1 μg/ml) or Ang II (10^−8 M and 10^−7 M) for 72 hours. [^3H]-thymidine incorporation and cell counts, using a hemocytometer, were evaluated.

[2] = system: MMP-2; assay: Gelatin zymography of conditioned media, MMP-2 expression; details: TGF-β 2 ng/ml alone, 72 h
Procedure: The effects of rhRLX on MMP expression, were determined using gelatin zymography of conditioned media, performed as previously described (Talhouk R S et al. (1991) 112:439-449). Briefly, the neonatal cardiac cells (1×10^5/cm^2) were treated with either TGF-β (2 ng/ml) or Ang II (10^−7 M) in the absence or presence of rhRLX (100 ng/ml) for 72 h; the final 24 hours of treatment were under serum-free conditions. Equal aliquots of the collected media were then analyzed on zymogram gels consisting of 7.5% acrylamide and 1 mg/ml gelatin, and the gels were subsequently treated as previously detailed (Talhouk R S, supra).

[3] = system: atrial and ventricular fibroblasts; assay: Collagen deposition into the cell matrix (hydroxyproline content of cell layers); details: stimulus alone, 72 h
Procedure: (§1) Distribution of relaxin and LGR7 expression was determined in atrial myocytes and fibroblasts, ventricular myocytes and fibroblasts, and vascular smooth muscle cells (VSMC). These cells were obtained from neonate rats using standard collagenase digestion methods. Neonate (1 day old) Sprague Dawley rats were used for tissue collection and subsequent cardiac cell isolation and preparation. The cells were maintained in DMEM supplemented with 10% fetal calf serum, penicillin (50 U/ml), and streptomycin (50 μg/ml) (DMEM-FBS). Cardiac fibroblast isolation from myocytes and subsequent preparation were performed as described previously (Gray M O et al. (1998) Cardiovasc Res 40:352-363). These preparations contained more than 95% cardiac fibroblasts as determined by morphological appearance and immunocytochemical staining. Fibroblasts were used between passages 2 and 4 for all studies.
Fibroblasts were also plated at 5/mm^2 and grown for 7 days in the absence or presence of rhRLX (100 ng/ml). […]
Collagen content of cell layers from untreated fibroblasts and cells treated with rhRLX (100 ng/ml) alone, TGF-β (2 ng/ml) alone, or TGF-β (2 ng/ml) and rhRLX (100 ng/ml) was measured after 72 hours of culture. The collagen content of cell layers from untreated atrial fibroblasts and cells treated with Ang II (10^−7 M) alone or Ang II (10^−7 M) and rhRLX (100 ng/ml) was measured after 72 hours of culture. […]

[4] = system: atrial and ventricular fibroblasts; assay: Collagen secretion into media by cardiac fibroblasts ([3H]-proline labelling); details: 72 h
Procedure: as §1
Atrial and ventricular fibroblasts were subjected to TGF-β or Ang II in the absence or presence of rhRLX over 3 days. For the TGF-β studies, cells were treated for 72 hours with rhRLX (100 ng/ml), TGF-β (1 or 2 ng/ml), or a combination of rhRLX (100 ng/ml) and TGF-β (2 ng/ml) in serum-free DMEM supplemented with lactalbumin hydrolysate. For the Ang II studies, fibroblasts were treated with Ang II (1×10^−7 M and 5×10^−7 M) or a combination of rhRLX (100 ng/ml) and Ang II (1 or 5×10^−7 M). TGF-B3 (1 ng/ml) alone induced an 85-95% increase in secretion of interstitial (types I and III) collagen into the cultured media.
For measurement of collagen synthesis, collagen was biosynthetically labelled with [^3H]-proline in the presence of ascorbate and β-aminopropionitrile, as previously described (Unemori et al, supra). For measurement of collagen deposition into the cell matrix, cell layers (per well) were isolated and hydrolyzed with 6 M hydrochloric acid for measurement of hydroxyproline content, as described previously (Samuel C S et al. (1996) Endocrinology 137:3884-3890; Gallop P M, Paz M A (1975) Physiol Rev 55:418487). […]

[5] = system: α-SMA; assay: Fibroblast differentiation to myofibroblasts, Western blot of α-SMA; details: TGF-β 2 ng/ml or Ang II 10^−7 M alone, 72 h, ventricular fibroblasts
From the text: In the normal heart, cardiac fibroblasts are relatively quiescent, but upon pathological stimuli to the heart they proliferate and differentiate into activated myofibroblasts. These myofibroblasts, the hallmarks of which are α-SMA expression and production of prodigious amounts of collagen, are important contributors to fibrosis and the pathology of the heart (Eghbali M (1998) Basic Res Cardiol 87(Suppl 2):183-189; Bouzegrhane F, Thibault G (2002) Cardiovasc Res 53:304-312). Ventricular fibroblast differentiation to myofibroblasts was analyzed by measuring α-SMA expression by ventricular fibroblasts. In all experiments, an equal amount of total protein (10 μg/sample) was analyzed. α-SMA was sized at 43 kDa under nonreducing conditions when detected with a monoclonal antibody. In some experiments, cells were either untreated or treated with TGF-β (2 ng/ml) alone or TGF-β (2 ng/ml) and rhRLX (100 ng/ml) for 72 hours. In other experiments, cells were either untreated or treated with Ang II (10^−7 M) alone or Ang II (10^−7 M) and rhRLX (100 ng/ml) for 72 hours.
Fibroblast differentiation into myofibroblasts was determined by α-SMA expression. […] Cell layers were trypsinized, and the protein was extracted using Trizol reagent (according to the manufacturer's instructions; Life Technologies, Gaithersburg, Md.) and analyzed by the Bio-Rad dye-binding protein assay (Bio-Rad, Richmond, Calif.). […]

Row | Substance | increase in fibroblast proliferation ([1]; IGF-I 0.1 μg/ml) | increase in fibroblast proliferation ([1]; IGF-I 0.5 μg/ml) | increase in fibroblast proliferation ([1]; IGF-I 1.0 μg/ml) | MMP-2 expression [2] | up-regulation of collagen deposition into the matrix of fibroblasts [3] | increase in secretion of interstitial (types I and III) collagen into the cultured media ([4]; 1 ng/ml alone) | increase in α-SMA expression [5] | increase in atrial and ventricular fibroblast proliferation ([1]; Ang II 10^−7 M) [%] | increase in atrial and ventricular fibroblast proliferation ([1]; Ang II 10^−8 M) | increase in collagen secretion ([4]; Ang II 1×10^−7 M alone) | increase in collagen secretion ([4]; Ang II 5×10^−7 M alone)
1 | IGF-I: growth factor that potently stimulates fibroblast proliferation | 27-30% | 36-40% | 34-40% |  |  |  |  |  |  |  | 
2 | TGF-β |  |  |  | modest increase | 65-85% | 85-95% | 85-95% |  |  |  | 
3 | angiotensin II (DRVYIHPF; Angiotensin-2; UniProt P01019 25-32, looked up) [Ang II, angiotensin II, profibrotic stimulus obtained from Sigma-Aldrich] |  |  |  |  | 20-50% |  | 25-35% | 6473 | 63-75% | 50-60% | 15-20%
